Test results taken from paper PMC11022729 (Advanced Science, 2024).
Values joined by “and” are separate entries in the source; they are usually repeats but may differ in a detail not shown here. Equal entries are not always repeated.

Assays:
[1] = system: voltage-gated (KV) potassium channel; assay: SafetyScreen44 panel; type: binding, rat; conditions: 10 µM
Method: Measurements were performed in duplicate.
channel, which were obtainedfrom ratspecimens).
in brackets) specific for each target.

human D3 receptor = target: T1, human D3 receptor (Homo sapiens, UniProt P35462); assay: [3H]-spiperone competition binding assay, D3; conditions: for Ki: mean [CI 95%]
T1 construct: expressed in transfected cells; host or cells: CHO
T1 sequence (P35462 whole entry): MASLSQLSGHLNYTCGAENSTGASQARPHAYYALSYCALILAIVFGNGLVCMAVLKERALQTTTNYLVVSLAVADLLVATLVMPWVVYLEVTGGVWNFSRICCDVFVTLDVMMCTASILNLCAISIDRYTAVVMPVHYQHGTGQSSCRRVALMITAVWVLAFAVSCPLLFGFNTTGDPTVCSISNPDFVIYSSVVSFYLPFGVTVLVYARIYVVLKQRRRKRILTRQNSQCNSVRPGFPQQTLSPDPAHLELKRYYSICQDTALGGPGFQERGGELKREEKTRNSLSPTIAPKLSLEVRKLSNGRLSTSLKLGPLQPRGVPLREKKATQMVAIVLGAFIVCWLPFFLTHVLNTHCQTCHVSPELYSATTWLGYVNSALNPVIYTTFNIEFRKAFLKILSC
Method: CHO cells stably expressing human dopamine D2short (D2R) and D3 receptor (D3R) were washed and harvested using PBS. […] The cell membrane homogenate was centrifuged (20 000 × g, 20 min, 4 °C), and the resulting cell pellet was resuspended in the binding buffer. Crude membrane extracts were kept at −80 °C until use. Before starting the experiments, cell membranes were thawed, homogenized by sonication (3 × 10 s), and stored in an ice‐cold binding buffer. […] Assays were performed at least in triplicate with appropriate concentrations ranging from 0.01 nM to 100 µM of the test compound. Non‐specific binding was determined using 10 µM haloperidol. By filtering through GF/B filters pretreated with 0.3% (m/v) polyethyleneimine, the bound radioligand was separated from free radioligand using a cell harvester. Radioactivity was measured using liquid scintillation counting. Data were evaluated using the GraphPad Prism 9 software (San Diego, CA, USA) with a nonlinear regression fit.

human Slack = target: T2, human Slack (Homo sapiens, UniProt Q5JUK3); assay: FluxOR potassium ion channel assay in HEK-Slack cells; type: cell-based
T2 construct: host or cells: HEK293
T2 sequence (Q5JUK3 1-1230): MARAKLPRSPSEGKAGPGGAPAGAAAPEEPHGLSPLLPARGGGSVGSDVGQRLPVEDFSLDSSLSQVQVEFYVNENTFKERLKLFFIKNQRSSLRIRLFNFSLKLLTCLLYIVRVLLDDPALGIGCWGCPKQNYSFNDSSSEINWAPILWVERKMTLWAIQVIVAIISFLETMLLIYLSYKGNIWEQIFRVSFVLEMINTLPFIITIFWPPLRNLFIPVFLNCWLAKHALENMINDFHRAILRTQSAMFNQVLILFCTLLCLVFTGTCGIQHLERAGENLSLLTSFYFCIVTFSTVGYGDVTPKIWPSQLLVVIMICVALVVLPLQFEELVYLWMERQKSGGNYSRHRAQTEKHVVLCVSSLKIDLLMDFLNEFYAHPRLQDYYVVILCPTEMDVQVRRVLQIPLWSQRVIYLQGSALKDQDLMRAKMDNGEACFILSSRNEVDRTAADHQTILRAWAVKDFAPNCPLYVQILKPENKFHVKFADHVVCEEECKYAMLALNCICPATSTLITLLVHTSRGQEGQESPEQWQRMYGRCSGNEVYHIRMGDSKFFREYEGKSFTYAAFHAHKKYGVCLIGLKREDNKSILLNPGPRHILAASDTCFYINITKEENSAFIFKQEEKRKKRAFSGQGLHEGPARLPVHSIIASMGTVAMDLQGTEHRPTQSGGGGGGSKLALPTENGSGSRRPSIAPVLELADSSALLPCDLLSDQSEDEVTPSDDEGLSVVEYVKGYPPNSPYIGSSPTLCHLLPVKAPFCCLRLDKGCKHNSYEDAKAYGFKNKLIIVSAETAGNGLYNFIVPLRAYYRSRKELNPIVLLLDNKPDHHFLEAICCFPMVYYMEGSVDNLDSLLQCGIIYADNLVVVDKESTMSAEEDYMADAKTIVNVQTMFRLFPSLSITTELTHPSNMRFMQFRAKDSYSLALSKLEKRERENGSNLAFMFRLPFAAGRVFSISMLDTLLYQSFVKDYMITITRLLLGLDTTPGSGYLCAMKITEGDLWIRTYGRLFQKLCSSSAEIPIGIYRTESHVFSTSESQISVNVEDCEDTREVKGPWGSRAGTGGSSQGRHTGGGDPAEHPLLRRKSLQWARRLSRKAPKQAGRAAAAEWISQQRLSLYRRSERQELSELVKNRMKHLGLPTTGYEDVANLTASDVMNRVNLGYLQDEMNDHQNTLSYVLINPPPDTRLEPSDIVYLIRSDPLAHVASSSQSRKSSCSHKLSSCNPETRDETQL
Method: The functional activity of this series of compounds against human Slack was determined using a cell‐based FluxOR potassium ion channel assay in cultured HEK293 cells stably expressing human Slack (herein referred to as HEK‐Slack cells) and a Na^+‐free assay buffer to prevent compound‐independent Slack activation by monovalent cations.^[ [14], [24] ^] […] Of the 114 newly synthesized compounds, 31 acted as Slack activators to varying extents. Accordingly, we deemed eight of these as the most interesting candidates.
To determine the Slack‐activating efficacy and potency of the novel compounds, a commercial FluxOR potassium ion channel assay (#10 017; Invitrogen) was used. HEK‐Slack cells were plated at a density of 50 000 cells per well on a poly‐D‐lysine coated (75 µg mL^−1, Sigma–Aldrich) 96‐well, black‐walled microplate with clear bottom (#655 090; Greiner Bio‐One) in DMEM (100 µL per well) containing 10% FBS and 1% penicillin/streptomycin 24 h prior to assaying. In the initial experiments shown in Figure S3A–F (Supporting Information), HEK‐Slack cells were plated at a density of 100 000 cells/well 48 h prior to the assay. On the day of the experiment, the cells were loaded with FluxOR dye according to the manufacturer's protocol. A Na^+‐free assay buffer, adjusted to pH 7.4 with KOH, containing 140 mM choline chloride, 5 mM KCl, 2 mM CaCl2, 2 mM MgSO4, 10 mM HEPES, and 5.55 mM glucose was used. To reduce background fluorescence, all assay components were complemented with a 10% BackDrop Background Suppressor (#B10511; Invitrogen).
All compounds were prepared as a 333 mM stock in DMSO and diluted on the experimental day to a final concentration of 100, 50, 25, 12.5, 6.25, 3.125, or 1.5625 µM in an assay buffer with DMSO adjusted to 0.03%. Before treatment, the cells were washed, and the medium was exchanged for the assay buffer. In a total volume of 90 µL per well, the cells were then incubated for 30 min at 37 °C with compounds at the indicated concentrations, or 0.03% DMSO alone as the vehicle. […] Fluorescence was measured using an Infinite M200 microplate reader (Tecan) with excitation at 485 nm (9 nm bandwidth) and emission at 525 nm (20 nm bandwidth) in the bottom read mode. First, the baseline fluorescence of the individual wells was established. Thereafter cells were stimulated with 20 µL Tl2SO4 (5 mM) solution injected at 100 µL s^−1, and fluorescence was further recorded for 100 s. Assays were run in triplicate. For all time points, the ratio of fluorescence to baseline fluorescence was calculated first for individual wells, and the average was then used.
Dose‐response curves comprising six concentrations were obtained in triplets using fluorescence/fluorescenceBaseline ratios at the 100th s.

[2] = HEK-Slack cells, Na+-free assay buffer, mean (95% confidence interval)

SMILES	binding [1]	fold lower affinity against D3 as compared to loxapine (human D3 receptor)	Ki (human D3 receptor)	Emax (human Slack)	EC50 (human Slack; [2])	EC50 (human Slack; first preliminary experiments, Na+-free buffer with 2 mM Ca2+, 2 mM Mg2+ and 0.03% DMSO)
O=C(O)COCCN1CCN(C2=Nc3ccccc3Oc3ccc(Cl)cc32)CC1 [Compound 6]	did not measurably bind	≈ 31 fold	3.52 µM	96.2%	30 µM and 30.3 µM	
CN1CCN(C2=Nc3ccccc3Oc3ccc(Cl)cc32)CC1 [Loxapine, reference compound]	did not measurably bind		0.112 µM	100%	20.7 µM	23.4 µM
